Values quoted from earlier work as cited in patent US20150250776A1, “COMPOSITIONS AND METHODS FOR ORAL DELIVERY OF ENCAPSULATED 3-AMINOPYRIDINE-2-CARBOXALDEHYDE PARTICLES” (NANOTHERAPEUTICS, INC., priority 2014, published 2015).

Assays:
[1] = test system: cell lines selected for resistance to hydroxyurea
tumor cell lines = tumor cell lines compared with a fibroblast cell line

Nc1cccnc1C=O [3-AP, 3-aminopyridine-2-carboxaldehyde]
activity in hydroxyurea-resistant cell lines [1]: active
solubility in DMSO (DMSO): soluble
solubility in aqueous solutions (aqueous solutions): poor solubility
cytotoxic effects, tumor versus fibroblast cell line (tumor cell lines): preferential cytotoxic effects
